Test [1] addresses Paired box protein Pax-8 (Homo sapiens, UniProt Q06710). Put plainly: inhibitors of PAX8-driven TPO luciferase reporter, dose response, RMG-I cells, cherry-pick (AID 687027).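 Also: luciferase reporter driven by Pax8 target thyroperoxidase promoter measured by SteadyGlo luminescence.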 The class given is functional, cell-based.
For test [2], the target named is Cytochrome P450 2C19 (Homo sapiens, UniProt P33261). Put plainly: Cytochrome panel assay with activity outcomes. Panel member name: p450-cyp2c19 Compounds with AC50 equal or less than 10 uM are considered active. The class given is functional. The settings on record: read-out: AC50.
Cytochrome P450 2C19, sequence (P33261 whole entry): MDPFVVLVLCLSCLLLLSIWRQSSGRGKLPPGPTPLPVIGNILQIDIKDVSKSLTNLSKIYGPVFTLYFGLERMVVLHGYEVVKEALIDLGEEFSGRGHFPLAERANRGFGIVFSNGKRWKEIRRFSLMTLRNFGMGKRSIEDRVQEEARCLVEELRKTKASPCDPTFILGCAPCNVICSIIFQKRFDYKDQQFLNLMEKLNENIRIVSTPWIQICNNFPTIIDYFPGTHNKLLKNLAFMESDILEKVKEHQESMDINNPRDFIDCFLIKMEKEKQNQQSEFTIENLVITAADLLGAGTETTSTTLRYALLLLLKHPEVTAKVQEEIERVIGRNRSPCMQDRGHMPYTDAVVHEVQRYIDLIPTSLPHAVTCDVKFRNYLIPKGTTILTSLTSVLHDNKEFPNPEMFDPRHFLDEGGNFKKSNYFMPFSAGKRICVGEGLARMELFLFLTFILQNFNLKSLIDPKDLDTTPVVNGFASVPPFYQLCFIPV
Test [3] addresses Cytochrome P450 2D6 (Homo sapiens, UniProt P10635).
The target in test [4] is T1, Cytochrome P450 1A2 (Homo sapiens, UniProt P05177).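 Also: PubChem cytochrome P450 panel assay, CYP1A2 panel member.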
T1 sequence (P05177 whole entry): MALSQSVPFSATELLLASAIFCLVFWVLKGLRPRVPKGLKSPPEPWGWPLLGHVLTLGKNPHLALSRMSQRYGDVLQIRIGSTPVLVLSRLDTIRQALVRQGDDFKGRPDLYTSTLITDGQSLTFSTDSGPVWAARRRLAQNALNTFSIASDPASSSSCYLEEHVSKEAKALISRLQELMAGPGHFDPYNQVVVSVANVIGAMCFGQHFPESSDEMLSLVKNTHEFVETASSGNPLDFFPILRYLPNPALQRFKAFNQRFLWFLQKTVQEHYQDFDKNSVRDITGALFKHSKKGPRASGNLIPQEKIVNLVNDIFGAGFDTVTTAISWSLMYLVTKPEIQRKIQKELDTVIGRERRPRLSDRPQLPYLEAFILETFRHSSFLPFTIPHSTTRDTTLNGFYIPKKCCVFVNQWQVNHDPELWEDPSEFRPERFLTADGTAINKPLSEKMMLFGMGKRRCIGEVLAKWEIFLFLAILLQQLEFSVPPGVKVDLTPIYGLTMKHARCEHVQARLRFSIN

The target of test [5] is Cytochrome P450 2C9 (Homo sapiens, UniProt P11712).
Cytochrome P450 2C9, sequence (P11712 whole entry): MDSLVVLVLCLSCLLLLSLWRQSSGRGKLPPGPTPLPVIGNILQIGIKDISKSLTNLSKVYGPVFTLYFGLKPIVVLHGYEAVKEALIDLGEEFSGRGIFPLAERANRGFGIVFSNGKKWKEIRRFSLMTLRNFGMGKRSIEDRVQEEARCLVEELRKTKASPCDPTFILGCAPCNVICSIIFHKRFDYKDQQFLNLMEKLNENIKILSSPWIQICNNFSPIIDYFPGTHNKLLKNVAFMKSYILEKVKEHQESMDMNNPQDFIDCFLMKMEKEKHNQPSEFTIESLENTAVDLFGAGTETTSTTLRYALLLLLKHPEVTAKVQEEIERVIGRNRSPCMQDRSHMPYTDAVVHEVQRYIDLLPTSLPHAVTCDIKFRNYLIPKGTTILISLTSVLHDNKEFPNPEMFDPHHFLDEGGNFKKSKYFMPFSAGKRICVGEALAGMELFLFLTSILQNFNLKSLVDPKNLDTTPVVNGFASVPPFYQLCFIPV
The target of test [6] is Cytochrome P450 3A4 (Homo sapiens, UniProt P08684).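 Also: CYP3A4 tested as one member of a cytochrome P450 panel screen.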
Cytochrome P450 3A4, sequence (P08684 whole entry): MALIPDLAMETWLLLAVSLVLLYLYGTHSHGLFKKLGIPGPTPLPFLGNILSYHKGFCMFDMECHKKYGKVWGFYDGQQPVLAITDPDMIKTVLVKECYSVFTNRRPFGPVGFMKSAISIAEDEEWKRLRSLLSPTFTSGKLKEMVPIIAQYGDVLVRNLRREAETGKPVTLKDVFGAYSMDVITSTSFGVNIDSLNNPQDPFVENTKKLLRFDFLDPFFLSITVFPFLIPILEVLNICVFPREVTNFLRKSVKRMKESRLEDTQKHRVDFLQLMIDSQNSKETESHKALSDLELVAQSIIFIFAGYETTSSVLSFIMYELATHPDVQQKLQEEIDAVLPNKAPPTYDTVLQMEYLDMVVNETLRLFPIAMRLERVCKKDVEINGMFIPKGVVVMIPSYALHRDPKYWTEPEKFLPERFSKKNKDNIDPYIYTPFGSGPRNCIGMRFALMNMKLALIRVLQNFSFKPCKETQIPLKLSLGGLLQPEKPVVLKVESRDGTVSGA
For test [7], the system named is Streptococcus. Put plainly: Group A Streptococcus viability loss, dose response, counter-screen for streptokinase expression inhibitor project, luminescence, BacTiterGlo (AID 1915).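 Also: potency for reduction of bacterial viability or growth.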 The class given is functional, organism-based.
In test [8] the test system is Streptococcus sp. 'group A'. Put plainly: growth inhibition of control SK(-) GAS strain, dose response, counter-screen for streptokinase expression inhibitor project, luminescence, kanamycin, BacTiterGlo, confirmation (AID 1900). The class given is functional, organism-based.
In test [9] the target is T2, Corticotropin-releasing factor receptor 2/Corticotropin-releasing factor-binding protein (Homo sapiens, UniProt P24387+Q13324).
T2 sequence (Q13324 whole entry): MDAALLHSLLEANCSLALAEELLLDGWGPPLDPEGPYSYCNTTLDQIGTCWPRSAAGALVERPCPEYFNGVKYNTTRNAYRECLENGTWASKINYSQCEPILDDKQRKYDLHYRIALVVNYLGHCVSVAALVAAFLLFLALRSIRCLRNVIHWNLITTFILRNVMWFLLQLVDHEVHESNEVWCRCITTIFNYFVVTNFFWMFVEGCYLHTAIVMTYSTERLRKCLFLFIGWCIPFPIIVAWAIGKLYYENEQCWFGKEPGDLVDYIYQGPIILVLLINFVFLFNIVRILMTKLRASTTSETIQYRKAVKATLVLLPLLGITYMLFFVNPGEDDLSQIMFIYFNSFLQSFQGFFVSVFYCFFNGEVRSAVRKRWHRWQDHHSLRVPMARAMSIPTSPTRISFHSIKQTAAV
T2 sequence (P24387 whole entry): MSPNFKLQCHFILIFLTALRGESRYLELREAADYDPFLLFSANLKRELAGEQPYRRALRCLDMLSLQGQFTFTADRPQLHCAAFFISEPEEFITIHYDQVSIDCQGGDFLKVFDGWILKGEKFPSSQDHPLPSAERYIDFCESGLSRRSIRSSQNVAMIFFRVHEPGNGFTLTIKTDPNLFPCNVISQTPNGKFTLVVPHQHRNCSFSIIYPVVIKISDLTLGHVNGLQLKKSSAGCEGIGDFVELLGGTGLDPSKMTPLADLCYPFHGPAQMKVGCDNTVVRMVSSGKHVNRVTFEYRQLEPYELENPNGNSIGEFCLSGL
Put plainly: activators of CRF receptor 2 with binding protein – uHTS hits, confirmation (AID 602473). The class given is functional. The note with it: read-out: EC50_Mean.

The target in test [10] is T3, Heat shock factor protein 1 (Mus musculus, UniProt P38532).
T3 sequence (P38532 whole entry): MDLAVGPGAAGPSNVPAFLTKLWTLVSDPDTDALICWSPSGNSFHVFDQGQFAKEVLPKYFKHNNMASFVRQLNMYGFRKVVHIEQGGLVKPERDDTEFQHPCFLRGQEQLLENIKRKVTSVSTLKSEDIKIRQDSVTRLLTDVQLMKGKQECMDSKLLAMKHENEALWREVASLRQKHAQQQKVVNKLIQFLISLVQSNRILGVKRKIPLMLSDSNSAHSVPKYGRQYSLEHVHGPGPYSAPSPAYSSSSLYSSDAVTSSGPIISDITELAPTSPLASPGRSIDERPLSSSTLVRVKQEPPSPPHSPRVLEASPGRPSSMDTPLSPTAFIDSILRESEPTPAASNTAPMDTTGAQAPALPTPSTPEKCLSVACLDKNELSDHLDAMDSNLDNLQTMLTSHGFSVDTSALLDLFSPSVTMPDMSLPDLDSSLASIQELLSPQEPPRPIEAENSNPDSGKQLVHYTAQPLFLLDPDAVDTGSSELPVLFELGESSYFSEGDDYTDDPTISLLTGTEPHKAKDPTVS
Put plainly: inhibition of MG132-induced HSE-luciferase signal, confirmation, cell-based, NIH3T3, luminescence, dose retest (AID 2382).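 Also: NIH3T3 fibroblasts with HSF1-driven luciferase reporter stressed by proteasome inhibitor MG132; luminescence from HSF1-driven luciferase expression after 8 hours of MG132 stress.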 The class given is functional.

Test [11] in a line: Luminescence Cell-Based Dose Response HTS to Identify Activators of Luciferase Translation or Activity in H4 […] Cells. [Related pubchem assays: 1829 (Project Summary), 1814 (Primary HTS)]. The class given is functional.
Test [12] is described as follows: HEp-2 cell cytotoxicity, dose response, cytotoxicity control for RSV inhibitor project, HTS (AID 2410). The class given is functional. The settings on record: human respiratory syncytial virus.
For test [13], the target named is T4, Streptokinase A (Streptococcus pyogenes serotype M1, UniProt P10520).
T4 sequence (P10520 whole entry): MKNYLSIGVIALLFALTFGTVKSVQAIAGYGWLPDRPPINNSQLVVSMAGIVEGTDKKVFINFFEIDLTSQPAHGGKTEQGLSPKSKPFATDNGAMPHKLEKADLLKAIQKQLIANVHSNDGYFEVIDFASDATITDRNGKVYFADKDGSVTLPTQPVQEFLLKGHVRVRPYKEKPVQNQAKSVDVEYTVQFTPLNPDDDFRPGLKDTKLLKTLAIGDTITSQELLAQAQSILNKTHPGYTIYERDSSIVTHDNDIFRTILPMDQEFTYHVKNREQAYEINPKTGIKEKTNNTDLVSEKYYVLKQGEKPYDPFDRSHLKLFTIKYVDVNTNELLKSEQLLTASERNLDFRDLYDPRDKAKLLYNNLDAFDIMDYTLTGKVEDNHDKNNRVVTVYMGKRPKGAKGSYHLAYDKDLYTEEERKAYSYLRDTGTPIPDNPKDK
Put plainly: S. pyogenes streptokinase expression inhibitors, potency, dose response, plasminogen activation absorbance, OD405 (AID 1914).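 Also: secreted streptokinase activity via plasminogen activation per viability signal from cell pellet.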 The class given is functional, Streptococcus pyogenes M1 GAS.

Each structure is given as a SMILES string. Calls of active or inactive are those of the source.

Here are results for 22 compounds from ChEMBL document CHEMBL1201862, “PubChem BioAssay data set” (2004).

Cytochrome P450 2D6, sequence (P10635 whole entry): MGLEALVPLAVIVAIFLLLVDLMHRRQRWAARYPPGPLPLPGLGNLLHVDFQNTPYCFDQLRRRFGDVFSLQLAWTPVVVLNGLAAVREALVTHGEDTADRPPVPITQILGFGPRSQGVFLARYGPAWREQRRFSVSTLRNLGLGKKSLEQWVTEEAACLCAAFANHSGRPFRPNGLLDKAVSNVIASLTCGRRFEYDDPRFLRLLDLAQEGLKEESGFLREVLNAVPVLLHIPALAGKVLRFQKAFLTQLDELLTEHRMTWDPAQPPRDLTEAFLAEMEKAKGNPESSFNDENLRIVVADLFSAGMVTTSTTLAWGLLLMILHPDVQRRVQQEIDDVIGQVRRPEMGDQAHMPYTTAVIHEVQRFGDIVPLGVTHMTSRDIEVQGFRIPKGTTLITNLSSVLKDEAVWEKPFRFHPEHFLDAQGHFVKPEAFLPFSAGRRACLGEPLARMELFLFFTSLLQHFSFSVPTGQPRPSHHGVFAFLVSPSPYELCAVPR
Paired box protein Pax-8, sequence (Q06710 whole entry): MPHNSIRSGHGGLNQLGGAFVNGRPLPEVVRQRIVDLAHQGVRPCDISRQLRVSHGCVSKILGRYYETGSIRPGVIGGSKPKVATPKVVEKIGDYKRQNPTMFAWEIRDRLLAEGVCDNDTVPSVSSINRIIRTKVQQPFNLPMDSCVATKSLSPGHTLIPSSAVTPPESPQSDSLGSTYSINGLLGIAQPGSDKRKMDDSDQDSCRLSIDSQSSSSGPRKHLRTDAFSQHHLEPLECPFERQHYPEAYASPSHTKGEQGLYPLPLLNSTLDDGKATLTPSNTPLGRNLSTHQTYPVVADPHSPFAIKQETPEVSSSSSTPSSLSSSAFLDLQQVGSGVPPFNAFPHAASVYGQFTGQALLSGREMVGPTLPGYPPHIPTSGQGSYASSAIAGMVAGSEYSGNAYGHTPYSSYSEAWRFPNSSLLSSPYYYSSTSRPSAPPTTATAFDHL

Regarding `CCCCn1nc(C(=O)Nc2cc(C(F)(F)F)ccc2N2CCOCC2)ccc1=O`, the AC50 in test [1] was 4.7 µM (active).

On to `COC(=O)[C@@]1(Cc2ccc(F)cc2)[C@H]2c3cc(C(=O)N(C)C)n(Cc4ccc(Cl)c(C(F)(F)F)c4)c3C[C@H]2CN1C(=O)c1ccccc1`, for which the values for the concentration at half-maximal activity (AC50) in [2], in [3] and in [4] were 5.01 µM (inconclusive), 6.31 µM (inconclusive) and 15.8 µM (inconclusive), respectively. As to `COC(=O)[C@@]1(Cc2ccc(OC)cc2)[C@H]2c3cc(C(=O)N4CCCC4)n(CCc4ccc(O)c(OC)c4)c3C[C@H]2CN1C(=O)c1ccccc1`, the AC50 in [3] is 39.8 µM (inconclusive). On the same count and under the same terms, the same measure for `Clc1ccc(COc2ccccn2)cc1Cl`: 11.2 µM (inconclusive). Regarding `COc1cc(OC)c2c(-c3cccc(-c4ccc(OC)c(F)c4)c3)cc(=O)oc2c1`, the half-maximal activity concentration (AC50) in [1] was 1.08 µM (active).

On to `COC(=O)[C@@]1(Cc2ccc(F)cc2)[C@H]2c3cc(C(=O)N(C)C)n(Cc4cc(C)n(C)n4)c3C[C@H]2CN1C(=O)c1ccccc1`, for which the concentration at half-maximal activity (AC50) in [2] and in test [3] was 39.8 µM (inconclusive) each time. As for `O=C(NCc1ccc2c(c1)OCO2)C1CC(=O)N(C2CCCC2)C1` (stereo not given), the half-maximal activity concentration (AC50) is 35.5 µM (inconclusive) in [2], 12.6 µM (inconclusive) in [3] and 17.8 µM (inconclusive) in test [4]. As to `CC(C)C(=O)NCCCc1ccccc1`, the AC50 in test [5] is 5.62 µM (inconclusive); in test [3], 20 µM (inconclusive). Take `O=C(CN1CCN(c2ccc(Cl)cc2)CC1)Nc1cccc(F)c1`: the AC50 is 25.1 µM (inconclusive) in test [6] and 1.41 µM (inconclusive) in test [3]. As for `COc1ccc2[nH]c(-c3ccccc3)c(CCNC(C)=O)c2c1`, in test [3], the AC50 was 25.1 µM (inconclusive). `Cc1ccc(C(=O)NNC(=S)NC(=O)c2ccc(Cl)cc2Cl)cc1`: the figures for the EC50 in test [7], in test [8] and in test [9] were 3.82 µM (active), 0.196 µM (active) and 2.78 µM (active), respectively. With `COc1ccc(NC(=O)CSc2nnc(CNC(=O)c3ccco3)n2-c2ccccc2OC)cc1`, the half-maximal activity concentration (AC50) in [6] was 39.8 µM (inconclusive); in test [5], 5.01 µM (inconclusive); in [2] it was 3.98 µM (inconclusive); in [3] it was 35.5 µM (inconclusive). Regarding `C1=Cc2ccccc2C1.C=C(C)c1ccccc1.[N-]=[N+]=Nc1ccccc1`, the AC50 is 3.16 µM (inconclusive) in test [2] and 3.98 µM (inconclusive) in test [3]. Turning to `Cc1cc(F)ccc1S(=O)(=O)NCC1CC2CCC1C2` (stereo not given), in [9], the EC50 is > 53 µM (inactive).

`O=C(NC(=S)Nc1ccc(F)cc1)c1ccc2c(c1)OCCO2`: the results for the EC50 in test [10] and in [9] were > 195 µM (not active) and > 53 µM (inactive), respectively.

For the compound `CCN(CC)c1ccc(C=C2SC(=S)NC2=O)cc1`, the EC50 in test [9] was 4.11 µM (active). The same measure, in the same setting: the result for `CCOc1ccc(NS(=O)(=O)c2ccc(C(=O)NCC(c3cccs3)N3CCOCC3)cc2)cc1` (stereo not given) reads 5.04 µM (active).

For `CCOc1ccc(C(CN2CCOCC2)C(C)=O)cc1OC` (stereo not given), in test [1], the AC50 is 1.68 µM (active). On the same count and under the same terms, the result for `COc1ccc(S(=O)(=O)Nc2ccc3c(c2)CC(=O)N([C@H](C)CO)C[C@H](C)[C@@H](CN(C)Cc2ccc(Cl)c(Cl)c2)O3)cc1` reads 16.2 µM (active); that for `Cc1ccc(S(=O)(=O)Nc2ccc3c(c2)C(=O)N([C@@H](C)CO)C[C@@H](C)[C@@H](CN(C)Cc2ccc(C(F)(F)F)cc2)OCCCC[C@@H](C)O3)cc1`, 13.3 µM (active).

For `CC(=O)O[C@@H]1CN2CCC1CC2` [(S)-ACECLIDINE], the concentration at half-maximal activity (AC50) in test [3] is 15.8 µM (inconclusive). As for `CC1Oc2cc3oc4c(O)c5c(cc4c(=O)c3c(O)c2C1(C)C)C=CC(C)(C)O5` (stereo not given) [GERONTOXANTHONE A], the EC50 in test [7] is 25.9 µM (active); in test [11], 2.13 µM (active); in [8], 1.11 µM (active); in test [13], 10.7 µM (active). Also, in [12], the CC50 was 14.9 µM (active).

Broadly, the AC50 is the midpoint of the concentration-response curve, whichever way the signal moves. What is called CC50 is the concentration that lowers cell viability or growth by half.
